Read-outs that look alike come from different tables or passages of the source.
Assays:
Assay type in all cases: in vivo
[1] = test system: Matricaria inodora (MATIN); experiment: Post-emergence herbicidal action against MATIN
Method: (§1) Seeds of monocotyledonous and dicotyledonous weeds and crop plants are placed in sandy loam in plastic or organic planting pots, covered with soil and cultivated in a greenhouse under controlled growth conditions. 2 to 3 weeks after sowing, the test plants are treated at the one-leaf stage. The compounds of the invention, formulated in the form of wettable powders (WP) or as emulsion concentrates (EC), are then sprayed onto the green parts of the plants as aqueous suspension or emulsion with addition of 0.5% additive at a water application rate of 600 l/ha (converted). After the test plants have been kept in the greenhouse under optimum growth conditions for about 3 weeks, the activity of the preparations is rated visually in comparison to untreated controls. For example, 100% activity=the plants have died, 0% activity=like control plants.
(§2) Tables B1 to B13 below show the effects of selected compounds of the general formula (I) according to Table 1 on various harmful plants and at an application rate corresponding to 320 g/ha or lower, which were obtained by the experimental procedure mentioned above. The appendices “a”, “b” and “c” give differentiation by dosage used with otherwise the same harmful plants tested.

[2] = test system: Alopecurus myosuroides (ALOMY); experiment: Post-emergence herbicidal action against ALOMY; details: visual rating about 3 weeks after treatment vs untreated controls (100% = plants have died, 0% = like control plants)
Method: as §1, §2

[3] = test system: Amaranthus retroflexus (AMARE); experiment: Pre-emergence herbicidal action against AMARE; details: visual scoring after about 3 weeks vs untreated controls
Text: (§3) Seeds of monocotyledonous and dicotyledonous weed plants and crop plants are placed in plastic or organic planting pots and covered with soil. The compounds of the invention, formulated in the form of wettable powders (WP) or as emulsion concentrates (EC), are then applied to the surface of the covering soil as aqueous suspension or emulsion with addition of 0.5% additive at a water application rate equivalent to 600 l/ha. After the treatment, the pots are placed in a greenhouse and kept under good growth conditions for the trial plants. After about 3 weeks, the effect of the preparations is scored visually in comparison with untreated controls as percentages. For example, 100% activity=the plants have died, 0% activity=like control plants.
(§4) Tables A1 to A13 below show the effects of selected compounds of the general formula (I) on various harmful plants and at an application rate corresponding to 320 g/ha or lower, which were obtained by the experimental procedure mentioned above. The appendices “a”, “b” and “c” give differentiation by dosage used with otherwise the same harmful plants tested.

Avena fatua (AVEFA) [4] = experiment: Pre-emergence herbicidal action against AVEFA; details: visual scoring after about 3 weeks vs untreated controls
Text: as §3, §4

Setaria viridis (SETVI) [5] = experiment: Post-emergence herbicidal action against SETVI
Method: as §1, §2

[6] = test system: Abutilon theophrasti (ABUTH); experiment: Post-emergence herbicidal action against ABUTH; details: 320 g/ha, visual rating about 3 weeks after treatment vs untreated controls (100% = plants have died, 0% = like control plants)
Method: as §1, §2

[7] = test system: Amaranthus retroflexus (AMARE); experiment: Post-emergence herbicidal action against AMARE
Method: as §1, §2

Viola tricolor (VIOTR) [8] = experiment: Pre-emergence herbicidal action against VIOTR
Text: as §3, §4

Lolium rigidum (LOLRI) [9] = experiment: Post-emergence herbicidal action against LOLRI; details: dosage 320 g/ha
Method: as §1, §2

Oryza sativa (ORYSA) = details: crop plant compatibility
Method: as §1
(§5) The observed effects on selected crop plants are reported here in comparison to the untreated controls (values in %). The appendices “a”, “b” and “c” give differentiation by dosage used with otherwise the same crop plants tested.

Zea mays (ZEAMX) = test system: Zea mays (ZEAMX)
Method: as §1, §5

[10] = test system: Verconica persica (VERPE); experiment: Post-emergence herbicidal action against VERPE
Method: as §1, §2

[11] = test system: Pharbitis purpurea (PHBPU); experiment: Post-emergence herbicidal action against PHBPU; details: dosage 320 g/ha
Method: as §1, §2

[12] = test system: Polygonum convolvulus (POLCO); experiment: Pre-emergence herbicidal action against POLCO
Text: as §3, §4

[13] = test system: Echinochloa crus-galli (ECHCG); experiment: Pre-emergence herbicidal action against ECHCG; details: dosage 320 g/ha
Text: as §3, §4

[14] = test system: Matricaria inodora (MATIN); experiment: Pre-emergence herbicidal action against MATIN; details: dosage 320 g/ha
Text: as §3, §4

Avena fatua (AVEFA) [15] = experiment: Post-emergence herbicidal action against AVEFA; details: visual rating about 3 weeks after treatment
Method: as §1, §2

[16] = test system: Polygonum convolvulus (POLCO); experiment: Post-emergence herbicidal action against POLCO
Method: as §1, §2

Viola tricolor (VIOTR) [17] = experiment: Post-emergence herbicidal action against VIOTR
Method: as §1, §2

[18] = test system: Verconica persica (VERPE); experiment: Pre-emergence herbicidal action against VERPE
Text: as §3, §4

Setaria viridis (SETVI) [19] = experiment: Pre-emergence herbicidal action against SETVI
Text: as §3, §4

Lolium rigidum (LOLRI) [20] = experiment: Pre-emergence herbicidal action against LOLRI
Text: as §3, §4

[21] = test system: Echinochloa crus-galli (ECHCG); experiment: Post-emergence herbicidal action against ECHCG
Method: as §1, §2

[22] = test system: Alopecurus myosuroides (ALOMY); experiment: Pre-emergence herbicidal action against ALOMY; details: scored visually after about 3 weeks, 100% = plants have died
Text: as §3, §4

[23] = test system: Pharbitis purpurea (PHBPU); experiment: Pre-emergence herbicidal action against PHBPU; details: dosage 320 g/ha
Text: as §3, §4

[24] = 80 g/ha, visual rating about 3 weeks after treatment vs untreated controls (100% = plants have died, 0% = like control plants)
[25] = 80 g/ha, effect in comparison to untreated controls

SMILES | Post-emergence action against ALOMY in % ([2]; 80 g/ha) | Pre-emergence action against AMARE in % ([3]; 80 g/ha) | Pre-emergence action against AMARE in % ([3]; 320 g/ha) | Pre-emergence action against AVEFA in % (Avena fatua (AVEFA) [4]; 320 g/ha) | Post-emergence action against SETVI in % (Setaria viridis (SETVI) [5]; dosage 80 g/ha) | Post-emergence action against AMARE in % [7, 24] | Pre-emergence action against VIOTR in % (Viola tricolor (VIOTR) [8]; 320 g/ha, Viola tricolor) | Post-emergence action against ORYSA in % (Oryza sativa (ORYSA); [25]) | Pre-emergence action against POLCO in % ([12]; dosage 320 g/ha) | Pre-emergence action against ECHCG in % [13] | Pre-emergence action against MATIN in % [14] | Pre-emergence action against VERPE in % ([18]; dosage 320 g/ha) | Pre-emergence action against SETVI in % (Setaria viridis (SETVI) [19]; dosage 320 g/ha) | Pre-emergence action against LOLRI in % (Lolium rigidum (LOLRI) [20]; dosage 320 g/ha) | Pre-emergence action against ALOMY ([22]; 80 g/ha) | Pre-emergence action against ALOMY ([22]; 320 g/ha) | also measured
CC(Oc1nn(-c2ccccn2)c(-c2ccc(F)nc2)c1C(F)(F)F)C(=O)O (stereo not drawn) [Example I-94] | 80% | 80% | 100% | 90% | 80% | 90% | 100% | 20% | 90% | 80% | 100% | 90% | 100% | 100% | 80% | 100% | Post-emergence action against MATIN in % ([1]; dosage 320 g/ha): 80%; Post-emergence action against ALOMY in % ([2]; 320 g/ha): 100%; Pre-emergence action against AVEFA in % (Avena fatua (AVEFA) [4]; 80 g/ha): 80%; Post-emergence action against SETVI in % (Setaria viridis (SETVI) [5]; dosage 320 g/ha): 90%; Post-emergence action against ABUTH in % [6]: 80%; Post-emergence action against AMARE in % ([7]; 320 g/ha, visual rating about 3 weeks after treatment): 90%; Pre-emergence action against VIOTR in % (Viola tricolor (VIOTR) [8]; dosage 80 g/ha): 100%; Post-emergence action against LOLRI in % (Lolium rigidum (LOLRI) [9]): 100%; Post-emergence action against ZEAMX in % (Zea mays (ZEAMX); crop plant compatibility, 80 g/ha, effect vs untreated controls): 20%; Post-emergence action against VERPE in % ([10]; 320 g/ha, VERPE): 90%; Post-emergence action against PHBPU in % [11]: 80%; Pre-emergence action against POLCO in % ([12]; dosage 80 g/ha): 90%; Post-emergence action against AVEFA in % (Avena fatua (AVEFA) [15]; 80 g/ha): 80%; Post-emergence action against AVEFA in % (Avena fatua (AVEFA) [15]; 320 g/ha): 100%; Post-emergence action against POLCO in % ([16]; dosage 80 g/ha): 80%; Post-emergence action against POLCO in % ([16]; dosage 320 g/ha): 90%; Post-emergence action against VIOTR in % (Viola tricolor (VIOTR) [17]; 80 g/ha): 90%; Post-emergence action against VIOTR in % (Viola tricolor (VIOTR) [17]; 320 g/ha): 90%; Pre-emergence action against LOLRI in % (Lolium rigidum (LOLRI) [20]; dosage 80 g/ha): 100%; Post-emergence action against ECHCG in % ([21]; dosage 320 g/ha): 90%
COC(=O)CCOC(=O)COc1nn(-c2ccccn2)c(-c2ccc(F)nc2)c1Br [Example I-116] | 90% | 90% | 100% | 90% | 80% | 90% | 90% | 10% | 90% | 100% | 90% | 90% | 100% | 100% | 90% | 100% | Post-emergence action against MATIN in % ([1]; dosage 80 g/ha): 80%; Pre-emergence action against PHBPU in % [23]: 90%; Post-emergence action against ORYSA in % (Oryza sativa (ORYSA); 20 g/ha, effect vs untreated controls): 10%; Post-emergence action against ZEAMX in % (crop plant compatibility) (Zea mays (ZEAMX); 20 g/ha, ZEAMX, effect in comparison to untreated controls): 20%; Post-emergence action against VERPE in % ([10]; dosage 80 g/ha): 80%; Pre-emergence action against VERPE in % ([18]; dosage 80 g/ha): 90%; Pre-emergence action against SETVI in % (Setaria viridis (SETVI) [19]; dosage 80 g/ha): 90%; Post-emergence action against ECHCG in % ([21]; dosage 80 g/ha): 80%
